Results published in article PMC8436246 (ACS Medicinal Chemistry Letters, 2021).
Values belong to the molecule of their own block, whether it stands above or below them.

Assays:
[1] = mouse pharmacokinetic study, oral bioavailability; format: in vivo, C57BL/6 mice
[2] = tested on: EMT6 tumor-implanted BALB/c mice; assay: pharmacokinetic-pharmacodynamic experiments in EMT6 tumor-bearing BALB/c mice; format: in vivo
[3] = in vitro stability in mouse hepatocytes; format: in vitro ADME

combined exposures of 18 and 23 (% F) ([1]; 23 dosed orally, 10 mpk, mouse): 27 % F
clearance ([1]; mouse pharmacokinetic experiments): rapid clearance
SMILES: C[C@H](N)C(=O)N[C@H]1CN[C@H](C(=O)O)[C@@H]1CCCB(O)O [Compound 23]

SMILES: O=C(O)[C@H]1NCC[C@H]1CCCB(O)O [Compound 4a]
serum and tumor arginine levels ([2]; 30, 100, 300 mpk BID p.o., 1 h after fourth dose, vs saline control): substantially elevated
pharmacodynamic effects on serum and tumor arginine levels with or without codosing of mDX400 ([2]; p.o. 250 mpk BID, 14 day, ± mDX400 i.p. 5 mpk Q5D): comparable pharmacodynamic effects
tolerability / body weight ([2]; p.o. 250 mpk BID, alone and with mDX400 (i.p. 5 mpk Q5D), 14 day repeated dosing): well tolerated

SMILES: CC(C)[C@H](N)C(=O)N[C@H]1CN[C@H](C(=O)O)[C@@H]1CCCB(O)O [Compound 24a]
metabolic stability [3]: good metabolic stability was not achieved
